Assay results published in patent US9181277B2, “Aminoquinazoline derivatives and their salts and methods of use” (SUNSHINE LAKE PHARMA CO., LTD., priority 2011, dated 2015).

Biological target: EGFR Kinase (Homo sapiens, UniProt P00533)
Assay: EGFR inhibitory activity test (HTRF kinEASE STK S1 kinase assay)
Format: biochemical
Conditions: replicate wells, read-out: IC50(nM), Inhibitory Activity of Compounds on EGFR Kinase
Protocol: In a pilot study, the compounds disclosed herein were screened for their EGFR inhibitory activity. The Cisbio Research Product HTRF kinEASE STK S1 kinase assay/inhibitor screening Kit, can detect the generation of the phosphorylated substrate. Kinase, biotinylated substrate and ATP were first added into buffer solution, and the phosphorylated biotinylated substrates were formed by enzyme reaction. Then, to the above solution was added europium-labeled anti-phospho-site specific antibodies and XL665-labeled avidin. The Specific combinations of antibody with antigen, and biotin with avidin, bring the europium and XL665 closer together and resonance energy transferred. The signals at 620 nm and 665 nm were detected, and the activity of the kinase was evaluated by the ratio of the two signals value.

Chain of EGFR Kinase (P00533 25-1210): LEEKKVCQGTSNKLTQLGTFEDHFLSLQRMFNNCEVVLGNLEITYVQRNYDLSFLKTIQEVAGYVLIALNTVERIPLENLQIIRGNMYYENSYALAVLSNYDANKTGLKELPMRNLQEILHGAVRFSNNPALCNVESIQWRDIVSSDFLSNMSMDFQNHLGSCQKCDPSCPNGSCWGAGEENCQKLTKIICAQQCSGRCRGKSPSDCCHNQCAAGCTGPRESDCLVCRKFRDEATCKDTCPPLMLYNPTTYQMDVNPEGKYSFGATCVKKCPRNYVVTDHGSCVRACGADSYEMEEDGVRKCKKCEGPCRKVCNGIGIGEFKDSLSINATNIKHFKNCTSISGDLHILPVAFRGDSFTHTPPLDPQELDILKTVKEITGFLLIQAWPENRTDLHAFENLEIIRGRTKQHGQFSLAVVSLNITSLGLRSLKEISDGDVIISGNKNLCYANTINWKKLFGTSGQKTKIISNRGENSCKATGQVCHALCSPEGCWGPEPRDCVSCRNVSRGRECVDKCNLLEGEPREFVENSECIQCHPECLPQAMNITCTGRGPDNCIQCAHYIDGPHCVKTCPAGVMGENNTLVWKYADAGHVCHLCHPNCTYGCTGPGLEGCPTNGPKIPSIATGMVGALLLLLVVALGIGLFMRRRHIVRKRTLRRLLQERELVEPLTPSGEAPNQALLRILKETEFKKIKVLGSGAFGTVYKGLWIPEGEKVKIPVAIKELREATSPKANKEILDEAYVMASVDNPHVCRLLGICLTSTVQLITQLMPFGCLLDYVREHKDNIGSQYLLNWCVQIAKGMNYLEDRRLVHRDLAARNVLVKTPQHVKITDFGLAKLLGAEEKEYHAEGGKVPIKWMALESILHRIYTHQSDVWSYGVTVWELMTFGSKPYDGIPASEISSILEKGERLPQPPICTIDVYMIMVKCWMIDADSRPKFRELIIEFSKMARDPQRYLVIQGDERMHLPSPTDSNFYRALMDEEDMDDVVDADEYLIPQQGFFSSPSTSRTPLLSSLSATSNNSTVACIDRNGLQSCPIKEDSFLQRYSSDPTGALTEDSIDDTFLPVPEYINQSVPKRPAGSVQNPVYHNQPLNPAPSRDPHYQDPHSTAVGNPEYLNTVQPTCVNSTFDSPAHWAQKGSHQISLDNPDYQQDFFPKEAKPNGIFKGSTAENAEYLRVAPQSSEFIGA

SMILES	IC50 [nM]
COc1cc2ncnc(Nc3ccc(F)c(Cl)c3)c2cc1OCCCN1CC2OCCN(Cc3ccccc3)C2C1 (stereo not drawn) [Example 16, 6-(3-(4-benzylhexahydropyrrolo[3,4-b][1,4]oxazin-6(2H)-yl)propoxy)-N-(3-chloro-4-fluorophenyl)-7-methoxyquinazolin-4-amine]	1 to 10
C#Cc1cc(Nc2ncnc3cc(OC)c(OCCCN4CC5OCCOC5C4)cc23)ccc1F (stereo not drawn) [Example 9, N-(3-ethynyl-4-fluorophenyl)-7-methoxy-6-(3-(tetrahydro-2H-[1,4]dioxino[2,3-c]pyrrol-6(3H)-yl)propoxy)quinazolin-4-amine]	1 to 10
CCc1nnc2n1CCN(CCCOc1cc3c(Nc4ccc(F)c(Cl)c4)ncnc3cc1OC)C2 [Example 2, N-(3-chloro-4-fluorophenyl)-6-(3-(3-ethyl-5,6-dihydro-[1,2,4]triazolo[4,3-a]pyrazin-7(8H)-yl)propoxy)-7-methoxyquinazolin-4-amine]	> 10
COc1cc2ncnc(Nc3ccc(F)c(Cl)c3)c2cc1OCCCN1CCn2cnnc2C1 [Example 3, N-(3-chloro-4-fluorophenyl)-6-(3-(5,6-dihydro-[1,2,4]triazolo[4,3-a]pyrazin-7(8H)-yl)propoxy)-7-methoxyquinazolin-4-amine]	0.101 to 1
COc1cc2ncnc(Nc3ccc(F)c(Cl)c3)c2cc1OCCCN1CC2OCCN(C)C2C1 (stereo not drawn) [Example 15, N-(3-chloro-4-fluorophenyl)-7-methoxy-6-(3-(4-methylhexahydropyrrolo[3,4-b][1,4]oxazin-6(2H)-yl)propoxy)quinazolin-4-amine]	0.101 to 1
COc1cc2ncnc(Nc3ccc(F)c(Cl)c3)c2cc1OCCCN1CCn2c(nnc2C(F)(F)F)C1 [Example 1, N-(3-chloro-4-fluorophenyl)-7-methoxy-6-(3-(3-(trifluoromethyl)-5,6-dihydro-[1,2,4]triazolo[4,3-a]pyrazin-7(8H)-yl)propoxy)quinazolin-4-amine]	1 to 10
COc1cc2ncnc(Nc3ccc(F)c(Cl)c3)c2cc1OCCCN1CC2CNCC2C1 (stereo not drawn) [Example 11, N-(3-chloro-4-fluorophenyl)-6-(3-(hexahydropyrrolo[3,4-c]pyrrol-2(1H)-yl)propoxy)-7-methoxyquinazolin-4-amine]	0.001 to 0.1
COc1cc2ncnc(Nc3ccc(F)c(Cl)c3)c2cc1OCCCN1C[C@@H]2C[C@]2(O)C1 [Example 4, (1R,5S)-3-(3-((4-((3-chloro-4-fluorophenyl)amino)-7-methoxyquinazolin-6-yl)oxy)propyl)-3-azabicyclo[3.1.0]hexan-1-ol]	0.001 to 0.1
COc1cc2ncnc(Nc3ccc(F)c(Cl)c3)c2cc1OCCCN1CCC2CN(C(C)=O)CC21 (stereo not drawn) [Example 14, 1-(1-(3-((4-((3-chloro-4-fluorophenyl)amino)-7-methoxyquinazolin-6-yl)oxy)propyl)hexahydropyrrolo[3,4-b]pyrrol-5(1H)-yl)ethanone]	1 to 10
COc1cc2ncnc(Nc3ccc(F)c(Cl)c3)c2cc1OCCCN1CCC2CNCC21 (stereo not drawn) [Example 13, N-(3-chloro-4-fluorophenyl)-6-(3-(hexahydropyrrolo[3,4-b]pyrrol-1(2H)-yl)propoxy)-7-methoxyquinazolin-4-amine]	0.001 to 0.1
COc1cc2ncnc(Nc3ccc(F)c(Cl)c3)c2cc1OCCCN1C[C@@H]2C[C@]2(N(C)C)C1 [Example 5]	0.101 to 1
C#Cc1cccc(Nc2ncnc3cc(OC)c(OCCCN4CC5OCCOC5C4)cc23)c1 (stereo not drawn) [Example 8, N-(3-ethynylphenyl)-7-methoxy-6-(3-(tetrahydro-2H-[1,4]dioxino[2,3-c]pyrrol-6(3H)-yl)propoxy)quinazolin-4-amine]	0.001 to 0.1
COc1cc2ncnc(Nc3ccc(Br)cc3F)c2cc1OCCCN1CC2OCCOC2C1 (stereo not drawn) [Example 10, N-(4-bromo-2-fluorophenyl)-7-methoxy-6-(3-(tetrahydro-2H-[1,4]dioxino[2,3-c]pyrrol-6(3H)-yl)propoxy)quinazolin-4-amine]	> 10
COc1cc2ncnc(Nc3ccc(F)c(Cl)c3)c2cc1OCCCN1CCC2CCNC2C1 (stereo not drawn) [Example 17, N-(3-chloro-4-fluorophenyl)-6-(3-(hexahydro-1H-pyrrolo[2,3-c]pyridin-6(2H)-yl)propoxy)-7-methoxyquinazolin-4-amine]	0.001 to 0.1

Further lines, results first:

IC50 [nM]	SMILES
0.001 to 0.1	COc1cc2ncnc(Nc3ccc(F)c(Cl)c3)c2cc1OCCCN1CC2COCC2C1 (stereo not drawn) [Example 22, N-(3-chloro-4-fluorophenyl)-7-methoxy-6-(3-(tetrahydro-1H-furo[3,4-c]pyrrol-5(3H)-yl)propoxy) quinazolin-4-amine]
0.001 to 0.1	COc1cc2ncnc(Nc3ccc(F)c(Cl)c3)c2cc1OCCCN1CC2CCCC2C1 (stereo not drawn) [Example 21, N-(3-chloro-4-fluorophenyl)-6-(3-(hexahydrocyclopenta[c]pyrrol-2(1H)-yl)propoxy)-7-methoxyquinazolin-4-amine]
0.001 to 0.1	COc1cc2ncnc(Nc3ccc(F)c(Cl)c3)c2cc1OCCCN1CCCC2CNCC21 (stereo not drawn) [Example 26, N-(3-chloro-4-fluorophenyl)-7-methoxy-6-(3-(octahydro-1H-pyrrolo[3,4-b]pyridin-1-yl)propoxy) quinazolin-4-amine]
1 to 10	COc1cc2ncnc(Nc3ccc(F)c(Cl)c3)c2cc1OCCCN1CCC2OCCOC2C1 (stereo not drawn) [Example 36, N-(3-chloro-4-fluorophenyl)-6-(3-(hexahydro-[1,4]dioxino[2,3-c]pyridin-6(7H)-yl)propoxy)-7-methoxyquinazolin-4-amine]
1 to 10	COc1cc2ncnc(Nc3ccc(F)c(Cl)c3)c2cc1OCCCN1CC2CCOCC2C1 (stereo not drawn) [Example 23, N-(3-chloro-4-fluorophenyl)-6-(3-(hexahydropyrano[3,4-c]pyrrol-2(3H)-yl)propoxy)-7-methoxyquinazolin-4-amine]
0.001 to 0.1	COc1cc2ncnc(Nc3ccc(F)c(Cl)c3)c2cc1OCCCN1CCCC2CN(C)CC21 (stereo not drawn) [Example 27, N-(3-chloro-4-fluorophenyl)-7-methoxy-6-(3-(6-methyloctahydro-1H-pyrrolo[3,4-b]pyridin-1-yl)propoxy)quinazolin-4-amine]
0.101 to 1	C#Cc1cc(Nc2ncnc3cc(OC)c(OCCCN4CCn5cnnc5C4)cc23)ccc1F [Example 45, 6-(3-(5,6-dihydro-[1,2,4]triazolo[4,3-a]pyrazin-7(8H)-yl)propoxy)-N-(3-ethynyl-4-fluorophenyl)-7-m ethoxyquinazolin-4-amine]
0.001 to 0.1	COc1cc2ncnc(Nc3ccc(F)c(Cl)c3)c2cc1OCCCN1CCCC2OCCCC21 (stereo not drawn) [Example 31, N-(3-chloro-4-fluorophenyl)-6-(3-(hexahydro-2H-pyrano[3,2-b]pyridin-5(3H)-yl)propoxy)-7-methoxyquinazolin-4-amine]
0.001 to 0.1	COc1cc2ncnc(Nc3ccc(F)c(Cl)c3)c2cc1OCCCN1CC2CCOC(=O)C2C1 (stereo not drawn) [Example 20, 2-(3-((4-((3-chloro-4-fluorophenyl)amino)-7-methoxyquinazolin-6-yl)oxy)propyl)hexahydropyrano[3,4-c]pyrrol-4(2H)-one]
0.001 to 0.1	CCN1CCCC2CN(CCCOc3cc4c(Nc5ccc(F)c(Cl)c5)ncnc4cc3OC)CC21 (stereo not drawn) [Example 34, N-(3-chloro-4-fluorophenyl)-6-(3-(1-ethylhexahydro-1H-pyrrolo[3,4-b]pyridin-6(2H)-yl)propoxy)-7-methoxyquinazolin-4-amine]
0.101 to 1	COc1cc2ncnc(Nc3ccc(F)cc3)c2cc1OCCCN1CCC2COCC2C1 (stereo not drawn) [Example 43, N-(4-fluorophenyl)-6-(3-(hexahydrofuro[3,4-c]pyridin-5(3H)-yl)propoxy)-7-methoxyquinazolin-4-amine]
1 to 10	COc1cc2ncnc(Nc3ccc(F)cc3)c2cc1OCCCN1CCn2cnnc2C1 [Example 42, 6-(3-(5,6-dihydro-[1,2,4]triazolo[4,3-a]pyrazin-7(8H)-yl)propoxy)-N-(4-fluorophenyl)-7-methoxyquinazolin-4-amine]
0.001 to 0.1	COc1cc2ncnc(Nc3ccc(F)c(Cl)c3)c2cc1OCCCN1CCC2CCCCC2C1 (stereo not drawn) [Example 35, N-(3-chloro-4-fluorophenyl)-7-methoxy-6-(3-(octahydroisoquinolin-2(1H)-yl)propoxy)quinazolin-4-amine]
0.101 to 1	COc1cc2ncnc(Nc3ccc(F)c(Cl)c3)c2cc1OCCCN1CCc2c(c(C)nn2C)C1 [Example 38, N-(3-chloro-4-fluorophenyl)-6-(3-(1,3-dimethyl-6,7-dihydro-1H-pyrazolo[4,3-c]pyridin-5(4H)-yl)propoxy)-7-methoxyquinazolin-4-amine]
1 to 10	COc1cc2ncnc(Nc3ccc(F)c(Cl)c3)c2cc1OCCCN1CCc2nn(C)c(C)c2C1 [Example 39, N-(3-chloro-4-fluorophenyl)-6-(3-(2,3-dimethyl-6,7-dihydro-2H-pyrazolo[4,3-c]pyridine-5(4H)-yl)propoxy)-7-methoxyquinazolin-4-amine]
1 to 10	COc1cc2ncnc(Nc3ccc(F)c(Cl)c3)c2cc1OCCCN1CCC2COCC2C1 (stereo not drawn) [Example 37, N-(3-chloro-4-fluorophenyl)-6-(3-(hexahydrofuro[3,4-c]pyridin-5(3H)-yl)propoxy)-7-methoxy quinazolin-4-amine]
1 to 10	COc1cc2ncnc(Nc3ccc(F)c(Cl)c3)c2cc1OCCCN1CC2C(C1)C2N(C)C (stereo not drawn) [Example 32, N-(3-chloro-4-fluorophenyl)-6-(3-(6-(dimethylamino)-3-azabicyclo[3.1.0]hexan-3-yl)propoxy)-7-methoxyquinazolin-4-amine]
0.001 to 0.1	COc1cc2ncnc(Nc3ccc(F)c(Cl)c3)c2cc1OCCCN1CC2CCCN(C)C2C1 (stereo not drawn) [Example 28, N-(3-chloro-4-fluorophenyl)-7-methoxy-6-(3-(1-methylhexahydro-1H-pyrrolo[3,4-b]pyridin-6(2H)-yl)propoxy)quinazolin-4-amine]
0.101 to 1	C#Cc1cc(Nc2ncnc3cc(OC)c(OCCCN4CC5CNCC5C4)cc23)ccc1F (stereo not drawn) [Example 44, N-(3-ethynyl-4-fluorophenyl)-6-(3-(hexahydropyrrolo[3,4-c]pyrrol-2(1H)-yl)propoxy)-7-methoxyquinazolin-4-amine]
